Data on 78 molecules can be found in a melting point compilation (Tetko et al.).

A word on the melting point: it is the temperature, or range, at which the solid turns liquid. The molecule `O=c1cc[nH]c(=O)[nH]1` registered a melting point of 338 °C.

Regarding `Cc1ccc(N)c([N+](=O)[O-])c1`, the melting point was determined as 116 °C.

`COc1ccccc1C1(C)CCc2oc3ccc(C)cc3c2-c2oc(C)cc21` (stereo not drawn) gave a melting point of 179 °C.

The molecule `N#CCc1ccc(OCc2c(F)cccc2Cl)cc1` showed a melting point of 78 to 79 °C.

Molecule `Ic1ccc(Cn2cccn2)cc1` returned a melting point of 80 to 81 °C.

With `CC12CCC(/C(=C/N(O)c3ccccc3)C1=O)C2(C)C` (stereo not drawn), the melting point was 106 to 107 °C.

Consider `N#CC1=C(N)Oc2ccc(Cl)cc2C1C(C#N)C#N` (stereo not drawn), for which the melting point was 155 to 156 °C.

Take `CNC(=O)C=C(C)OP(=O)(OC)OC`: the melting point is 55 °C.

In turn, `CC(C)(C)c1cc(C(=O)NN)n(Cc2ccc(F)cc2)n1` showed a melting point of 183 to 185 °C.

`CN(C)CCCOc1ccccc1CO`: the melting point lay in the range of 55 to 57 °C.

With `O=C(O)COc1c(Cl)ccc(Cl)c1Cl`, the melting point amounted to 148 °C.

The molecule `CCc1cccc(C)c1N` displayed a melting point of -25 °C.

Consider `O=Cc1ccc(-c2cccs2)s1`, for which the melting point was in the range of 57 to 58 °C.

Consider `CC1(C)OC2(C)CCC1C(=O)OC2(c1ccccc1)c1ccccc1` (stereo not drawn), for which the melting point was determined as 134 °C.

In the case of `N#CCSc1ccc2ccccc2c1`, the melting point lay in the range of 83 to 86 °C.

As to `O=C(NC(=O)c1c(F)cccc1F)Nc1cc(Cl)c(OC(F)(F)C(F)C(F)(F)F)cc1Cl` (stereo not drawn), the melting point was found to be 169 °C.

In turn, `CC12CCCCC1CCC1C2CCC2(C)C1CCC2(O)C#Cc1ccccc1` (stereo not drawn) displayed a melting point of 108 to 111 °C.

`O=C=Nc1ccc(-c2ncccn2)cc1` registered a melting point of 85.5 to 87.5 °C.

`Cc1nccc(O)c1OCc1ccc(Cl)cc1Cl`: the melting point was 218 to 222 °C.

`Cc1cc(I)cnc1NC(=O)C(C)(C)C` displayed a melting point of 143 °C.

`COc1ccc(Br)cc1/C=c1\sc2nc3ccccc3n2c1=O` had a melting point of 250 to 252 °C.

As for `O=C(CBr)c1csc2ccccc12`, the melting point was 138 to 139 °C.

For the molecule `CCc1ccc(C(=O)NN(C(=O)c2cc(C)cc(C)c2)C(C)(C)C)cc1`, the melting point was 191 °C.

On to `Nc1ccc(Br)cn1`, for which the melting point stood at 138 °C.

Turning to `CCOc1cccc2cc(C(=O)O)c(=O)oc12`, the melting point was 190 to 192 °C.

Molecule `N#Cc1ccc2c(c1)[N+]([O-])=C(c1cccc(C3=[N+]([O-])c4cc(C#N)ccc4C3=O)c1)C2=O` returned a melting point of 270 to 320 °C.

For `OCC(F)(F)C(F)(F)C(F)(F)C(F)(F)C(F)(F)C(F)(F)C(F)(F)C(F)(F)C(F)(F)C(F)F`, the melting point fell in the range of 95 to 97 °C.

Regarding `C=COC(C)(C)C`, the melting point was -112 °C.

For `CCOC(=O)C(C(=O)OCC)C(C(=O)OCC)C(=O)OCC`, the melting point came to 77 °C.

The molecule `CN(C)CCc1c[nH]c2cccc(OP(=O)(O)O)c12` returned a melting point of 224 °C.

In the case of `Cc1cc(C)c2c(=O)[nH]n(C)c2n1`, the melting point is 216 °C.

For `CCC(=O)c1cccc(Br)c1`, the melting point is 40 °C.

On to `CCN(CC)CCC#N`, for which the melting point is -64 °C.

In turn, `Brc1ccc(-c2cnco2)cc1` registered a melting point of 78 to 79 °C.

As to `O=C1NC2=Cc3ccccc3C2(O)Cc2ccccc21` (stereo not drawn), the melting point worked out at 209 °C.

For `FC(F)(F)c1nc2c(Cl)c(Cl)ccc2[nH]1`, the melting point was found to be 214 °C.

`Cn1c(=O)c(C2=NNC(=O)C2=NNc2ccccc2Cl)c(O)c2ccccc21` came in with a melting point of 264 °C.

`CCOC(=O)c1ccc(NC(=O)C(F)(F)C(F)(F)C(F)(F)C(F)(F)C(F)(F)C(F)(F)C(F)(F)C(F)(F)F)cc1` showed a melting point of 135 to 137 °C.

Molecule `Cn1ccc(-c2ccc(C(=O)O)cc2)n1` yielded a melting point of 240 to 242 °C.

In turn, `Cc1cc(C)nc(NS(=O)(=O)c2ccc(N)cc2)n1` showed a melting point of 200 °C.

The molecule `O=C(C=Cc1ccc(O)c(O)c1)OC1CC(O)(C(=O)O)CC(O)C1O` (stereo not drawn) returned a melting point of 205 to 209 °C.

In the case of `Cc1nc(-c2ccc(C=O)cc2)no1`, the melting point came to 115 °C.

In the case of `CCCCCCCCCCCCCCCC(C)CC` (stereo not drawn), the melting point amounted to 1 °C.

Consider `O=C(O)c1cccc(S(=O)(=O)Cl)c1`, for which the melting point worked out at 135 °C.

Take `CC(NC(=O)COCCN1C(=O)c2ccccc2C1=O)C(=O)NC(CCC(=O)O)C(=O)O` (stereo not drawn): the melting point was in the range of 192 to 195 °C.

Regarding `c1ccc2c(c1)NCCN2`, the melting point came to 99 °C.

Molecule `CCC(C(=O)OC)c1ccccc1` (stereo not drawn) came in with a melting point of 77.5 °C.

For `O=c1[nH]cc(Cl)c(=O)[nH]1`, the melting point is 300 °C.

Molecule `CCOc1ccc(N)c([N+](=O)[O-])c1` registered a melting point of 110 to 114 °C.

For `Cc1cc(-c2cc(C)n(C)n2)n[nH]1`, the melting point was 154 to 156 °C.

Consider `Cn1ccc2c1CCCC2=O`, for which the melting point turned out to be 85 °C.

Consider `COc1cccc(CO)c1OC`, for which the melting point is 48 to 51 °C.

With `O=C(CBr)c1cccc(Br)c1`, the melting point was 51 to 52 °C.

`O=C(O)c1c(Br)cc(Br)c(O)c1Br` returned a melting point of 147 °C.

Take `N#Cc1ccc(S(N)(=O)=O)cc1`: the melting point is 170 °C.

`N#Cc1ccc(C[C@H](NC(=O)OCC2c3ccccc3-c3ccccc32)C(=O)O)cc1` showed a melting point of 189 °C.

In turn, `CC1=C(C(=O)OC(C)C)C(c2ccccc2)NC(=S)N1` (stereo not drawn) displayed a melting point of 177 °C.

For `CC(=O)OCC1=CC2CC(=O)C3=COC(OC4OC(CO)C(O)C(O)C4O)C1C32` (stereo not drawn), the melting point turned out to be 128 °C.

With `O=C(O)CN(CCO)CCN(CC(=O)O)CC(=O)O`, the melting point lay in the range of 212 to 214 °C.

`Cc1ccc(C(=O)O)cc1Cl` had a melting point of 208 to 209 °C.

Molecule `CSc1nc(N)nc(-c2cccs2)n1` registered a melting point of 176 to 177 °C.

`Fc1c(F)c(Br)c(F)c(F)c1Br`: the melting point lay in the range of 78 to 81 °C.

`BrC(c1ccccc1)C(Br)c1ccccc1` (stereo not drawn) showed a melting point of 239 °C.

With `CC1=NNC(=O)N(N=Cc2cccnc2)C1`, the melting point turned out to be 217 °C.

As for `CCCCCC(O)CC(=O)CCc1ccc(OC)c(O)c1` (stereo not drawn), the melting point is 31 °C.

The molecule `O=CC(=O)O` had a melting point of 98 °C.

Turning to `C[Si](C)(C)C#CC1(O)Cc2ccccc21` (stereo not drawn), the melting point was 47 °C.

`NNS(=O)(=O)c1ccc(-c2ccccn2)s1`: the melting point was 109 to 111 °C.

The molecule `Oc1ccc(Br)cc1C=NCCN=Cc1cc(Br)ccc1O` returned a melting point of 191 to 196 °C.

Molecule `Cn1nc2ccccc2c1C(=O)Cl` had a melting point of 89 to 90 °C.

Molecule `Nc1ccc(-n2cccc2)cc1` had a melting point of 81 °C.

For the molecule `O=C(Nc1ccc2cc(OC(=O)c3ccccc3)ccc2c1)c1ccccc1`, the melting point was in the range of 224 to 229 °C.

As to `NNC(=O)c1ccc(N)cc1O`, the melting point is 195 °C.

As to `c1ccc(-c2nnc3n2CN(c2ccccn2)CS3)cc1`, the melting point fell in the range of 223 to 224 °C.

Molecule `O=C(CC(NC(=O)OCC1c2ccccc2-c2ccccc21)C(=O)O)NC(c1ccccc1)(c1ccccc1)c1ccccc1` (stereo not drawn) had a melting point of 205 °C.

`O=C1CCCC(Cl)(Cl)C1(O)O` had a melting point of 120 to 124 °C.

`CC(=O)c1ccc(N2C(=O)C=CC2=O)cc1` returned a melting point of 156 °C.

Take `Cc1ccc(O)cc1`: the melting point was found to be 35.5 °C.
